Measured values as given in patent US20220402883A1, “COMPOUNDS AND METHODS FOR MODULATING RNA FUNCTION” (Arrakis Therapeutics, Inc., priority 2016, published 2022).

Assays:
[1] = test system: RNA3WJ_0.0.0_5B_3FAM (3WJ RNA); experiment: Ligand observed NMR binding assay (Watergate, WaterLOGSY, STD); conditions: 10 μM RNA, +/− 200 Ark000013
Experimental: Purpose: Test direct binding of compounds for RNA three way junction (3WJ). This ligand observed NMR assay is used to test direct binding of compounds to an RNA target, for example a 38 nt synthetic RNA 3WJ and others as described below. Ligand observed assay was used for hit validation studies of single compounds. Established experiments were eventually used to perform group epitope mapping, described below.
Sample buffer: 10 mM Cacodylate, pH 7.1; 0.68 g [MW: 137.99 g/mol]; fill up to 500 ml with Millipore H2O.
Compound Stocks: Tool compounds provided as dry powder were prepared as 50 mM stock solution in 100% d6-DMSO. Test compounds provided as dry powder were prepared as 50 mM stock solution in 100% d6-DMSO. Stock solutions of 50 mM concentration in d6-DMSO were stored at 4° C.
NMR spectrometer: Bruker AVANCE600 spectrometer operating at 600.0 MHz for ^1H. 5-mm z-gradient TXI Cryoprobe.
Dried RNA pellet is solubilized in sample buffer 10 mM Cacodylate pH 7.1. […]
Spectra were analyzed for direct binding signals of the compounds. […]
ARK0000013 was also tested in the NMR binding assay. Test Sample: 10 μM RNA3WJ_0.0.0_5B_3FAM+/−200 Ark000013. ^1H 1D Watergate & WaterLOGSY spectra recorded of Ark000013 were used as a reference (Note: aromatic signals observed between 7.4-7.9 ppm and due to symmetry of the center triptycene scaffold all 9 protons are magnetically equivalent).

[2] = test system: RNA3WJ_1.0.0_5IB_3FAM (cis 3WJ with one unpaired nucleotide); experiment: Fluorescence quenching binding assay (FAM / Iowa Black); conditions: two concentration points
Experimental: This assay will be used to test binding of compounds for RNA three way junction (such as a 38 nt construct). This is a fluorescence quenching assay utilizing FAM as fluorescence tag and Iowa Black as quencher. Tags are attached at the 3′ and 5′ end, respectively. Stable formation of MW upon compound binding would lead to quenching of the FAM fluorescence due to close proximity of the Iowa Black tag. Assay readout: FAM (485-520 nm) Fluorescence Intensity.
Assay sample buffer used: 10 mM CacoK pH 7.2, 30 mM NaCl. Buffer preparation in Dnase/Rnase Free distilled water (Gibco Life Technologies).
Dilute the RNA 1:10 (final 10 μM) in Assay Buffer.
Heat up the diluted RNA up to 90° C. for 5 min (sealed Eppendorf Tube).
Cool down the RNA probe slowly to RT.
Dilute the compounds to 800 μM in DMSO (Assay: 8 μM).
Final concentrations in the sample: 1-10 μM RNA, 8 μM compound, 1% DMSO
Pipet 25 μL Sample Solution into Greiner cat #784076, black, 384
Measure the 96 plate with the LightCycler480 (Channel: 485/520 nm).
The fluorescence quenching experiment was repeated for compounds Ark0000013 and Ark0000014 to measure binding with:
A) RNA3WJ_1.0.0_5IB_3FAM (cis 3WJ with one unpaired nucleotide)
Both cmpds were tested at two concentration points in the fluorescence quenching assays to assess effect upon RNA constructs utilized in the study. […]

RNA3WJ_3.0.0_5IB_3FAM = experiment: Thermal shift binding assay; conditions: 1 μM RNA, 8 μM compound, 10 mM CacoK pH 7.2, 30 mM NaCl
[3] = test system: RNA3WJ_0.0.0_5IB_3FAM (3WJ_0.0.0_5IB_3FAM RNA construct); experiment: Thermal shift binding assay
How it was run: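 A 3WJ RNA construct, 5′-Iowa Black/3′-FAM labelled and annealed (90° C. for 5 min, slow cooling), was tested at 1 μM with 8 μM compound, 1% DMSO, in 10 mM CacoK pH 7.2, 30 mM NaCl. FAM fluorescence (480/510 nm) monitored from 41 to 91° C. at 0.1° C./sec. Compound effect on 3WJ stability taken from Tm shift of melting curves.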

[4] = 1 μM RNA, 8 μM compound, 10 mM CacoK pH 7.2, 30 mM NaCl

STD signals [1]: small signals
WaterLOGSY signals in the presence of RNA [1]: clear reduction of negative sign signals
Melting temp + cmpd (RNA3WJ_3.0.0_5IB_3FAM): 83.7 °C
Temp. Shift (RNA3WJ_3.0.0_5IB_3FAM): 21.7 °C
Melting temp + cmpd [3, 4]: 84.1 °C
Temp. Shift [3, 4]: 24.2 °C
Melt. Temp. with cmpd ([3]; RNA sequence 3WJ_0.0.0_5IB_FAM, melting temperature in presence of compound): 84.1 °C
Shift melt. Temp. ([3]; RNA sequence 3WJ_0.0.0_5IB_FAM, with cmpd minus without cmpd): +24.2 °C
Compound: CN(CCCN)CCCNC(=O)c1ccc2c(c1)C1c3cc(C(=O)NCCCN(C)CCCN)ccc3C2c2ccc(C(=O)NCCCN(C)CCCN)cc21 [Ark000013, N^2,N^7,N^15-tris(3-((3-aminopropyl)(methyl)amino)propyl)-9,10-dihydro-9,10-[1,2]benzenoanthracene-2,7,15-tricarboxamide]
fluorescence quenching effect (FAM fluorescence signal) [2]: significant concentration dependent effect
